Where two headings read alike, the source gives them in different places.
Experiment: Plasma PK of H3B-6545 capsules in fasted patients, phase 1 dose escalation
Type: in vivo, human
Conditions: for Tlag: Median (Min, Max)
Experimental: Blood samples were collected at the planned time points from each patient and centrifuged. The plasma portion of each sample was then transferred to a K2EDTA tube, which was then shipped to a bioanalytical lab for concentration measurement using LC-MS/MS. The concentration data were then analyzed using Phoenix® WinNonlin software to obtain PK parameters. The obtained PK parameters were further summarized using analytical software.
Blood samples (approximately 5 mL each) were collected from human patients pre-dose and at various hourly time points post-dose. Plasma concentrations of H3B-6545 were determined using a validated high-performance liquid chromatography/tandem mass spectrometry (LC-MS/MS) method. The lower limit of quantification was 0.100 ng/mL.
The PK Analysis Set included subjects who received H3B-6545 drug product in capsules or tablets and had sufficient evaluable plasma concentration data to derive at least 1 primary PK parameter in each treatment. Plasma concentrations of H3B-6545 (as free base) were tabulated and summarized at each nominal time using descriptive statistics (number of subjects, arithmetic mean with standard deviation [SD], coefficient of variation [CV %], geometric mean, median, minimum, and maximum) as appropriate. Individual and mean (±SD) plasma concentration-time profiles were provided for each treatment.
Pharmacokinetic parameters of H3B-6545 were calculated using noncompartmental methods, using an appropriate model for plasma data and extravascular administration. The PK parameters included, but were not limited to, area under the curve to the time of the last quantifiable concentration (AUC0-t), maximum concentration (Cmax), and time at which the maximum concentration occurred (tmax). If data permitted, the area under the plasma concentration-time curve extrapolated to infinity (AUC0-inf), terminal elimination half-life (t1/2), apparent total body clearance (CL/F), total systemic clearance after oral administration at steady state (CLss/F), apparent volume of distribution during the terminal phase (Vz/F), apparent steady-state volume of distribution (Vss), accumulation ratio for Cmax (RCmax) and accumulation ratio of AUC0-24 (RAUC) were also derived.
Methods were used to analyze whether H3B-6545 inactivates both wild-type and mutant ERα by targeting cysteine 530 and enforcing a unique antagonist conformation. Methods: Women with locally advanced or metastatic HR+BC are treated (tx) with H3B-6545 drug product administered once daily orally by capsule over a 28 day cycle after progression on at least one hormonal therapy and at least one additional therapy/regimen. Dose escalation uses a 3+3 design with the option to backfill previously cleared doses and allows for intrapatient dose escalation. This example explored the safety, pharmacokinetics and pharmacodynamics of H3B-6545 in women with HR+BC to identify a recommended subsequent dose for testing.
• H3B-6545 administered once daily orally over a 28 day cycle. • Dose escalation using a standard 3+3 study design using dose cohorts of 100, 200, 300, 450, and 600 mg QD. • Patients allowed to backfill previously cleared doses. • Intra-patient dose escalation allowed after completion of Cycle 3. Results (as of Apr. 20, 2019) Patient Population: • 46 patients were treated with H3B-6545 at doses of 100 to 600 mg QD. • 42 (91.3%) patients received a prior CDK4/6 inhibitor and 32 (69.6%) prior fulvestrant. • 30 (65.2%) patients received ≥3 prior anti-cancer therapy lines in the advanced/metastatic setting.
The clinical trial of Example 3 was continued and PK evaluations (of this Example 4) were made at a later date on the basis of a larger patient population. The summary of Tables 1 in Analysis of Pharmacokinetic (PK) of Capsules in Fasted Patients and 2 show PK parameters and profiles of human patients receiving capsules of H3B-6545 drug product prepared as in Example 1. […]

[1] = Cycle 1 Day 15, 100 mg QD capsules, fasted patients, Geometric Mean (GeoCV %)
[2] = Cycle 1 Day 15, 100 mg QD capsules, fasted patients, normalized from Table 11
[3] = Cycle 1 Day 15, 200 mg QD capsules, fasted patients, Geometric Mean (GeoCV %)
[4] = Cycle 1 Day 15, 200 mg QD capsules, fasted patients, normalized from Table 11
[5] = Cycle 1 Day 15, 300 mg QD capsules, fasted patients, Geometric Mean (GeoCV %)
[6] = Cycle 1 Day 15, 300 mg QD capsules, fasted patients, normalized from Table 11
[7] = Cycle 1 Day 15, 450 mg QD capsules, fasted patients, Geometric Mean (GeoCV %)
[8] = Cycle 1 Day 15, 450 mg QD capsules, fasted patients, normalized from Table 11
[9] = Cycle 1 Day 15, 600 mg QD capsules, fasted patients, Geometric Mean (GeoCV %)
[10] = Cycle 1 Day 15, 600 mg QD capsules, fasted patients, normalized from Table 11
[11] = Cycle 1 Day-Dose Escalation, 100 mg QD capsules, fasted patients, normalized from Table 9
[12] = Cycle 1 Day-Dose Escalation, 200 mg QD capsules, fasted patients, normalized from Table 9
[13] = Cycle 1 Day-Dose Escalation, 300 mg QD capsules, fasted patients, normalized from Table 9
[14] = Cycle 1 Day-Dose Escalation, 450 mg QD capsules, fasted patients, normalized from Table 9
[15] = Cycle 1 Day-Dose Escalation, 600 mg QD capsules, fasted patients, normalized from Table 9
[16] = female, human, plasma, oral, 100 mg, Cycle 1 Day 1, 100 mg QD capsules, fasted patients, Geometric Mean (GeoCV %)

## CN(C)C(=O)/C=C/CNCCOc1ccc(/C(=C(/CC(F)(F)F)c2ccccc2)c2ccc3[nH]nc(F)c3c2)cn1 [H3B-6545, (E)-N,N-dimethyl-4-[2-[5-[(Z)-4,4,4-trifluoro-1-(3-fluoro-1H-indazol-5-yl)-2-phenylbut-1-enyl]pyridin-2-yl]oxyethylamino]but-2-enamide]
100 mg to 600 mg, Cycle 1, Day 1, preliminary PK analyses (FIG. 1)
  plasma exposure versus dose: roughly dose-proportional increase
100 mg to 600 mg, preliminary PK analyses (FIG. 1)
  tmax and half-life, dependence on dose and time: independent of dose and time
100 to 600 mg, as of Apr. 20, 2019 (FIG. 1)
  plasma concentration versus dose: increased with dose
Cycle 1 Day 1, 100 mg QD capsules, fasted patients, Geometric Mean (GeoCV %)
  CL/F: 46.9 (92.2); 6 L/h
Cycle 1 Day 1, 100 mg QD capsules, fasted patients
  Tlag: 0 (0-1); 6 h
Cycle 1 Day 1, 200 mg QD capsules, fasted patients, Geometric Mean (GeoCV %)
  CL/F: 37.9 (68.3); 8 L/h
Cycle 1 Day 1, 200 mg QD capsules, fasted patients
  Tlag: 0 (0-0.6); 12 h
Cycle 1 Day 1, 300 mg QD capsules, fasted patients, Geometric Mean (GeoCV %)
  CL/F: 27.1 (49.1); 10 L/h
Cycle 1 Day 1, 300 mg QD capsules, fasted patients
  Tlag: 0 (0-0.58); 11 h
Cycle 1 Day 1, 450 mg QD capsules, fasted patients, Geometric Mean (GeoCV %)
  CL/F: 19.6 (42.4); 8 L/h
Cycle 1 Day 1, 450 mg QD capsules, fasted patients
  Tlag: 0 (0-0.5); 11 h
Cycle 1 Day 1, 600 mg QD capsules, fasted patients, Geometric Mean (GeoCV %)
  CL/F: 18.3 (68.6); 5 L/h
Cycle 1 Day 1, 600 mg QD capsules, fasted patients
  Tlag: 0 (0-0.5); 7 h
[1]
  CLss/F: 39.1 (56.2); 6 L/h
  RAUC (accumulation ratio of AUC0-24): 1.52 (58.3); 6
  RCmax (accumulation ratio for Cmax): 1.61 (69.3); 6
Cycle 1 Day 15, 100 mg QD capsules, fasted patients
  Tlag: 0 (0-0); 6 h
[2]
  AUC0-24 (per 1 mg of API): 25.6 ng·h/mL/mg
  AUC0-inf (per 1 mg of API): 29.5 ng·h/mL/mg
  AUC0-t (per 1 mg of API): 25.9 ng·h/mL/mg
  Cmax (per 1 mg of API): 2.9 ng/mL/mg
[3]
  CLss/F: 29.1 (52.8); 10 L/h
  RAUC (accumulation ratio of AUC0-24): 1.43 (72.9); 10
  RCmax (accumulation ratio for Cmax): 1.28 (118.2); 10
Cycle 1 Day 15, 200 mg QD capsules, fasted patients
  Tlag: 0 (0-0); 10 h
[4]
  AUC0-24 (per 1 mg of API): 34.4 ng·h/mL/mg
  AUC0-inf (per 1 mg of API): 39.8 ng·h/mL/mg
  AUC0-t (per 1 mg of API): 34.6 ng·h/mL/mg
  Cmax (per 1 mg of API): 3.0 ng/mL/mg
[5]
  CLss/F: 26.2 (50.5); 10 L/h
  RAUC (accumulation ratio of AUC0-24): 1.27 (38.3); 11
  RCmax (accumulation ratio for Cmax): 1.34 (38.3); 11
Cycle 1 Day 15, 300 mg QD capsules, fasted patients
  Tlag: 0 (0-0); 11 h
[6]
  AUC0-24 (per 1 mg of API): 40.0 ng·h/mL/mg
  AUC0-inf (per 1 mg of API): 42.5 ng·h/mL/mg
  AUC0-t (per 1 mg of API): 40.3 ng·h/mL/mg
  Cmax (per 1 mg of API): 4.0 ng/mL/mg
[7]
  CLss/F: 32.1 (52.6); 10 L/h
  RAUC (accumulation ratio of AUC0-24): 0.920 (49); 10
  RCmax (accumulation ratio for Cmax): 1.05 (42.1); 10
Cycle 1 Day 15, 450 mg QD capsules, fasted patients
  Tlag: 0 (0-0); 10 h
[8]
  AUC0-24 (per 1 mg of API): 31.2 ng·h/mL/mg
  AUC0-inf (per 1 mg of API): 38.6 ng·h/mL/mg
  AUC0-t (per 1 mg of API): 31.2 ng·h/mL/mg
  Cmax (per 1 mg of API): 3.1 ng/mL/mg
[9]
  CLss/F: 32.7 (78.1); 3 L/h
  RAUC (accumulation ratio of AUC0-24): 0.712 (31.4); 3
  RCmax (accumulation ratio for Cmax): 0.685 (69.2); 3
Cycle 1 Day 15, 600 mg QD capsules, fasted patients
  Tlag: 0 (0-0); 3 h
[10]
  AUC0-24 (per 1 mg of API): 30.6 ng·h/mL/mg
  AUC0-inf (per 1 mg of API): 66.2 ng·h/mL/mg
  AUC0-t (per 1 mg of API): 31.2 ng·h/mL/mg
  Cmax (per 1 mg of API): 2.8 ng/mL/mg
[11]
  AUC0-24 (per 1 mg of API): 16.8 ng·h/mL/mg
  AUC0-inf (per 1 mg of API): 21.3 ng·h/mL/mg
  AUC0-t (per 1 mg of API): 16.8 ng·h/mL/mg
  Cmax (per 1 mg of API): 1.78 ng/mL/mg
[12]
  AUC0-24 (per 1 mg of API): 23.8 ng·h/mL/mg
  AUC0-inf (per 1 mg of API): 26.37 ng·h/mL/mg
  AUC0-t (per 1 mg of API): 24.1 ng·h/mL/mg
  Cmax (per 1 mg of API): 2.4 ng/mL/mg
[13]
  AUC0-24 (per 1 mg of API): 31.6 ng·h/mL/mg
  AUC0-inf (per 1 mg of API): 36.9 ng·h/mL/mg
  AUC0-t (per 1 mg of API): 31.8 ng·h/mL/mg
  Cmax (per 1 mg of API): 3.0 ng/mL/mg
[14]
  AUC0-24 (per 1 mg of API): 35.9 ng·h/mL/mg
  AUC0-inf (per 1 mg of API): 51.1 ng·h/mL/mg
  AUC0-t (per 1 mg of API): 35.9 ng·h/mL/mg
  Cmax (per 1 mg of API): 3.3 ng/mL/mg
[15]
  AUC0-24 (per 1 mg of API): 37.3 ng·h/mL/mg
  AUC0-inf (per 1 mg of API): 54.8 ng·h/mL/mg
  AUC0-t (per 1 mg of API): 37.2 ng·h/mL/mg
  Cmax (per 1 mg of API): 3.4 ng/mL/mg
[16]
  AUC(0-inf): 2130 ng·h/mL
  Cmax: 178 ng/mL
  half-life: 10.2 h
female, human, plasma, oral, 100 mg, Cycle 1 Day 1, 100 mg QD capsules, fasted patients, Geometric Mean (GeoCV %), read-out: AUC0-24
  AUC(0-t): 1680 ng·h/mL
female, human, plasma, oral, 100 mg, Cycle 1 Day 1, 100 mg QD capsules, fasted patients, Geometric Mean (GeoCV %), read-out: AUC0-t
  AUC(0-t): 1680 ng·h/mL

Reference: patent US12702660B2, “Method for treating cancer with an oral dosage form of an estrogen receptor-alpha inhibitor” (Eisai R&D Management Co., Ltd., priority 2019, dated 2026)
